Laboratory results: article PMC5681660, “Reduced hepatitis B and D viral entry using clinically applied drugs as novel inhibitors of the bile acid transporter NTCP” (Scientific Reports, 2017)
Entries after “also recorded” stand apart in the source; their conditions may differ. Structures can show the parent of a compound that is named as a salt. Where two headings read alike, the source gives them in different places. One block for each compound: values may come before it.

Key:
in vitro = conditions: human
[1] = WST-1 cytotoxicity, wildtype U2OS cells; conditions: human, wildtype U2OS cells
human NTCP [2] = target: T1, human NTCP (Homo sapiens, UniProt Q14973); test: Taurocholate uptake inhibition studies in U2OS-HA-hNTCP cells; format: cell-based; design: HA; expressed in transfected cells; conditions: for IC50: U2OS-HA-hNTCP cells, concentrations 1 nM to 10 mM, read-out: IC50 for hNTCP-mediated TC uptake; for Taurocholate uptake into U2OS-HA-hNTCP cells (in words): increasing drug concentrations
T1 sequence (Q14973 1-349): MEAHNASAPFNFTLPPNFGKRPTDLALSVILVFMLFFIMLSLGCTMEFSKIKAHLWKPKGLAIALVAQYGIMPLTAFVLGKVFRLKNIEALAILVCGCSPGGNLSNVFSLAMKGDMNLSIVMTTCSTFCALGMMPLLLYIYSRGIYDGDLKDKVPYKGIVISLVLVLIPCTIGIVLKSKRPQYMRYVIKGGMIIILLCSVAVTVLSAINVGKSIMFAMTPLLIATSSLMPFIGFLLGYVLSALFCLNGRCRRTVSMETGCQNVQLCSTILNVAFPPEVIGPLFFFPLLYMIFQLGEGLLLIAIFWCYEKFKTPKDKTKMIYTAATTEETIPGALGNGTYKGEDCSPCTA
Experimental: For MDCK or MDCK-hASBT cells 70.000 cells/well were plated in 24-well plates, followed by 24 hours 10 mM sodium butyrate (Sigma-Aldrich) stimulation the next day. Cells were used in the inhibition studies 24 hours (U2OS cell lines) or 48 hours (MDCK cell lines) later. Inhibition studies with mNTCP transiently transfected cells were conducted 48–72 hours after transfection.
Medium was aspirated from the wells and cells were washed once with 250 µL uptake buffer. Subsequently, cells were pre-incubated with drug in 150 µL uptake buffer for 10 minutes at 37 °C. Taurocholate uptake was initiated by addition of 100 µL uptake buffer containing taurocholate (final concentration 10 µM TC spiked with tritium-labeled TC) and cells were incubated for 2 minutes at 37 °C. Subsequently, cells were washed 4 times with ice-cold PBS and lysed with 0.05% SDS in water. Radioactivity was measured by liquid scintillation counting.

human NTCP [3] = target: T1, human NTCP; test: Myrcludex B-FITC binding by confocal microscopy in U2OS-HA-hNTCP cells; design: HA; expressed in transfected cells; conditions: for Myrcludex B-FITC fluorescence / binding to U2OS-HA-hNTCP cells (in words): co-administration with increasing amounts of drug; for ≥50% loss of Myrcludex B binding to hNTCP (concentration): confocal microscopy, 0.2 µM Myrcludex B-FITC, drug 1, 10, 100 µM, concentration at which binding inhibited minimally 50%
Experimental: After 24 hours, medium was aspirated and cells were washed once with 300 µl Leibovitz’s L-15 Medium (Invitrogen). A 30 minute incubation period followed in which all cells were incubated with 0.2 µM Myrcludex B-FITC with or without drug (1, 10, 100 µM) and Hoechst (1/1000) in 300 µL Leibovitz’s L-15 Medium. Cells were washed twice with Leibovitz’s L-15 Medium and subsequently 400 µL Leibovitz’s L-15 Medium was added. Live cell fluorescent imaging was performed using a Leica SP8X-SMD confocal microscope with fully enclosed incubation at 37 °C. A 63x oil objective was used and images were captured while the cells were consecutively excited at 490 nm (FITC) 350 nm (Hoechst). ImageJ software (National Insititutes of Health, Bethesda, MD) was employed for data analysis.

U2OS-HA-hNTCP cells = conditions: 2 hours
U2OS cells = test: WST-1 cytotoxicity, wildtype U2OS cells; conditions: U2OS cells, 2 hours
HBV = conditions: for HBV infection in HepaRG cells (in words): HBeAg, HBsAg, HBcAg, concentration-dependent
HDV = HDV infection of HepaRG cells (HDAg immunofluorescence); format: cell-based, hepatitis delta virus; conditions: HDAg positive cells, day 5; concentration-dependent
human NTCP [4] = target: T1, human NTCP; test: Screening taurocholate uptake assay (96-well, [14C]taurocholate, 10 µM drug); conditions: for B-score functional assay: 10 µM drug
human NTCP [5] = target: T1, human NTCP; test: Screening fluorescent competitive Myrcludex B-FITC binding assay (96-well, 10 µM drug); conditions: 10 µM drug
[6] = ranking over the functional and the binding screening assay
[7] = Prestwick library screen, Myrcludex B-FITC binding
[8] = Prestwick library screen, taurocholate uptake
[9] = ranking score beside the functional and binding assay B-scores of the screen
[10] = screen, Myrcludex B-FITC binding
[11] = combined ranking from functional and binding screening assays
[12] = Prestwick library screen, B-score of Myrcludex B-FITC binding
[13] = Prestwick library screen, B-score of taurocholate uptake
[14] = combined ranking from functional and binding assay B-scores

Compound: CC(C)c1ccc2oc3nc(N)c(C(=O)O)cc3c(=O)c2c1 [Amlexanox]
- viability at 2 h, 1 µM (in vitro; U2OS-HA-hNTCP cells): 99.6 ± 6.1%
- viability at 2 h, 10 µM (in vitro; U2OS-HA-hNTCP cells): 102 ± 18.9%
- viability at 2 h, 100 µM (in vitro; U2OS-HA-hNTCP cells): 92.7 ± 17.8%
- viability at 2 h, 1 µM [1]: 88.2 ± 9.6%
- viability at 2 h, 10 µM [1]: 94.8 ± 13.8%
- viability at 2 h, 100 µM [1]: 77.3 ± 5.6%

Compound: Nc1c2c(nc3ccccc13)CCCC2O.O=C(O)/C=C\C(=O)O (centres unmarked) [Hydroxytacrine Maleate]
- IC50 (human NTCP [2]): 4200 µM
- outcome of follow-up screening of hits found in only one of the two screens (human NTCP [2]; follow-up of TC uptake and Myrcludex B binding): false positives
- Taurocholate uptake into U2OS-HA-hNTCP cells (in words) (human NTCP [2]): not
- Myrcludex B-FITC fluorescence / binding to U2OS-HA-hNTCP cells (in words) (human NTCP [3]): not
- ≥50% loss of Myrcludex B binding to hNTCP (concentration) (human NTCP [3]): Not confirmed
- cell viability by WST-1 (U2OS-HA-hNTCP cells; 1 µM): 105.6 ± 1.2%
- cell viability by WST-1 (U2OS-HA-hNTCP cells; 10 µM): 102 ± 8.3%
- cell viability by WST-1 (U2OS-HA-hNTCP cells; 100 µM): 96.7 ± 5.9%
- cell viability by WST-1 (U2OS cells; 1 µM): 107.6 ± 15.7%
- cell viability by WST-1 (U2OS cells; 10 µM): 100.7 ± 7.1%
- cell viability by WST-1 (U2OS cells; 100 µM): 95.8 ± 3.9%

Compound: CS(=O)(=O)O.Cc1c(O)cccc1C(=O)N[C@@H](CSc1ccccc1)[C@H](O)CN1C[C@H]2CCCC[C@H]2C[C@H]1C(=O)NC(C)(C)C [Nelfinavir Mesylate Hydrate]
- IC50 (human NTCP [2]): 134 µM
- Taurocholate uptake into U2OS-HA-hNTCP cells (in words) (human NTCP [2]): reduced in a dose-dependent fashion
- Myrcludex B-FITC fluorescence / binding to U2OS-HA-hNTCP cells (in words) (human NTCP [3]): reduced Myrcludex B-FITC fluorescence
- ≥50% loss of Myrcludex B binding to hNTCP (concentration) (human NTCP [3]): ≥100 µM
- cell viability by WST-1 (U2OS-HA-hNTCP cells; 1 µM): 105.3 ± 7.1%
- cell viability by WST-1 (U2OS-HA-hNTCP cells; 10 µM): 99.8 ± 5.2%
- cell viability by WST-1 (U2OS-HA-hNTCP cells; 100 µM): 104.8 ± 4.5%
- cell viability by WST-1 (U2OS cells; 1 µM): 105.9 ± 8.4%
- cell viability by WST-1 (U2OS cells; 10 µM): 102 ± 10.7%
- cell viability by WST-1 (U2OS cells; 100 µM): 95.1 ± 5.6%

Compound: O=C(O)Cc1cc(I)c(Oc2ccc(O)c(I)c2)c(I)c1 [TRIAC, 3,3′,5-Triiodothyroacetic acid]
- HBV infection in HepaRG cells (in words) (HBV): reduced HBV/HDV infection; also recorded: reduce
- number of HBcAg positive stained cells (HBV; HepaRG cells, day 10 post HBV infection, 50 µM): mild reduction
- viability at 2 h, 1 µM (in vitro): 109 ± 4.1%
- viability at 2 h, 10 µM (in vitro): 105 ± 2.1%
- viability at 2 h, 100 µM (in vitro): 86.3 ± 4.9%
- HDV infection in HepaRG cells (in words) (HDV): reduced HBV/HDV infection; also recorded: reduce
- viability at 2 h, 1 µM [1]: 100 ± 7.5%
- viability at 2 h, 100 µM [1]: 81.6 ± 3.8%

Compound: Cc1cc(-n2c(=O)[nH]c(=O)n(C)c2=O)ccc1Oc1ccc(SC(F)(F)F)cc1 [Toltrazuril]
- viability at 2 h, 1 µM (in vitro; U2OS-HA-hNTCP cells): 100 ± 9.9%
- viability at 2 h, 10 µM (in vitro; U2OS-HA-hNTCP cells): 109 ± 12.9%
- viability at 2 h, 100 µM (in vitro; U2OS-HA-hNTCP cells): 105 ± 11.4%
- IC50 (human NTCP [2]): 84.1 µM
- Taurocholate uptake into U2OS-HA-hNTCP cells (in words) (human NTCP [2]): reduced in a dose-dependent fashion
- Myrcludex B-FITC fluorescence / binding to U2OS-HA-hNTCP cells (in words) (human NTCP [3]): reduced Myrcludex B-FITC fluorescence
- ≥50% loss of Myrcludex B binding to hNTCP (concentration) (human NTCP [3]): ≥10 µM
- Ranking score (human NTCP [4]; [6]): 35.4965
- B-score functional assay (human NTCP [4]; screening taurocholate uptake): -3.14
- viability at 2 h, 1 µM [1]: 115 ± 6.1%
- viability at 2 h, 10 µM [1]: 109 ± 11.8%
- viability at 2 h, 100 µM [1]: 101 ± 3.6%

- B-score binding assay (human NTCP [5]; [7]): 1.294
- B-score functional assay (human NTCP [4]; [8]): -0.271
- Ranking score (human NTCP [4]; [9]): 706.817
Compound: CC(c1cc2ccccc2s1)N(O)C(N)=O (centres unmarked) [Zileuton]

- B-score binding assay (human NTCP [5]; [10]): -0.675
- Ranking score (human NTCP [4]; [11]): 382.094
- B-score functional assay (human NTCP [4]; screen, taurocholate uptake): -0.279
Compound: O=C1Cc2cc(CCN3CCN(c4nsc5ccccc45)CC3)c(Cl)cc2N1 [Ziprasidone Hydrochloride]

- B-score binding assay (human NTCP [5]; [10]): -0.262
- Ranking score (human NTCP [4]; [11]): 422.203
- B-score functional assay (human NTCP [4]; screen, taurocholate uptake): -0.476
Compound: O=P(O)(O)C(O)(Cn1ccnc1)P(=O)(O)O [Zoledronic acid hydrate]

- B-score binding assay (human NTCP [5]; [12]): 0.365
- B-score functional assay (human NTCP [4]; [13]): 3.016
- Ranking score (human NTCP [4]; [14]): 1038.21
Compound: NS(=O)(=O)Cc1noc2ccccc12 [Zonisamide]

- B-score binding assay (human NTCP [5]; [12]): 1.26
- B-score functional assay (human NTCP [4]; [13]): 0.249
- Ranking score (human NTCP [4]; [14]): 950.167
Compound: CN(C)CCOC1=Cc2ccccc2Sc2ccc(Cl)cc21 [Zotepine]

Compound: CCCCC1=NC2(CCCC2)C(=O)N1Cc1ccc(-c2ccccc2-c2nnn[nH]2)cc1 [irbesartan, reference compound]
- HBV infection in HepaRG cells (in words) (HBV): reduce
- concentration effective in reducing HBeAg and HBsAg production (HBV; HepaRG cells infected with HBV, supernatant day 7 to 10): 17 µM
- HDV infection in HepaRG cells (in words) (HDV): reduce
- NTCP inhibition in the screen (in words) (human NTCP [4]; 10 µM, both screening assays): confirmed NTCP inhibition
- position among the hits of the screen (combined ranking of both screening assays) (human NTCP [4]; 1280 drugs at 10 µM, TC uptake and Myrcludex B binding screens combined): ≤ 150
- Ranking score (human NTCP [4]; [6]): 197.737
- B-score functional assay (human NTCP [4]; screening taurocholate uptake): -3.733

- B-score binding assay (human NTCP [5]; [12]): 1.256
- B-score functional assay (human NTCP [4]; [13]): 0.733
- Ranking score (human NTCP [4]; [14]): 1039.8
Compound: (-) -Levobunolol hydrochloride

Compound: Bacitracin
- B-score binding assay (human NTCP [5]; [12]): 0.785
- B-score functional assay (human NTCP [4]; [13]): 1.013
- Ranking score (human NTCP [4]; [14]): 1026.66

Compound: Cyanocobalamin
- B-score binding assay (human NTCP [5]; [7]): 0.087
- B-score functional assay (human NTCP [4]; [8]): 0.223
- Ranking score (human NTCP [4]; [9]): 774.968

Compound: Deoxycorticosterone
- B-score binding assay (human NTCP [5]; [10]): -0.204
- Ranking score (human NTCP [4]; [11]): 460.68
- B-score functional assay (human NTCP [4]; screen, taurocholate uptake): -0.349

- B-score binding assay (human NTCP [5]; [10]): -0.173
- Ranking score (human NTCP [4]; [11]): 349.983
- B-score functional assay (human NTCP [4]; screen, taurocholate uptake): -1.058
Compound: Eburnamonine (-)

Compound: Norgestrel-(-)-D
- B-score binding assay (human NTCP [5]; [7]): 0.069
- B-score functional assay (human NTCP [4]; [8]): 0.036
- Ranking score (human NTCP [4]; [9]): 704.84

- B-score binding assay (human NTCP [5]; [12]): 0.801
- B-score functional assay (human NTCP [4]; [13]): 0.83
- Ranking score (human NTCP [4]; [14]): 1002.4
Compound: Spiramycin

Compound: Tyloxapol
- B-score binding assay (human NTCP [5]; [10]): 0.59
- B-score functional assay (human NTCP [4]; screen, taurocholate uptake): -1.163
